Target: BRAF^V600E protein (Homo sapiens, UniProt P15056, V600E)
Experiment: HiBiT cellular BRAF V600E degradation assay
Assay type: cell-based
Conditions: 24 h incubation; for DC50: A375.10 cells (HiBiT tag knocked in at N-terminal of BRAF V600E), concentration at which 50% of total cellular BRAF V600E is degraded; for Emax: A375.10 cells, Emax = amount of residual protein remaining in the cell after compound treatment, read-out: HiBit 24 h Emax

Sequence of BRAF^V600E protein (P15056 whole entry V600E): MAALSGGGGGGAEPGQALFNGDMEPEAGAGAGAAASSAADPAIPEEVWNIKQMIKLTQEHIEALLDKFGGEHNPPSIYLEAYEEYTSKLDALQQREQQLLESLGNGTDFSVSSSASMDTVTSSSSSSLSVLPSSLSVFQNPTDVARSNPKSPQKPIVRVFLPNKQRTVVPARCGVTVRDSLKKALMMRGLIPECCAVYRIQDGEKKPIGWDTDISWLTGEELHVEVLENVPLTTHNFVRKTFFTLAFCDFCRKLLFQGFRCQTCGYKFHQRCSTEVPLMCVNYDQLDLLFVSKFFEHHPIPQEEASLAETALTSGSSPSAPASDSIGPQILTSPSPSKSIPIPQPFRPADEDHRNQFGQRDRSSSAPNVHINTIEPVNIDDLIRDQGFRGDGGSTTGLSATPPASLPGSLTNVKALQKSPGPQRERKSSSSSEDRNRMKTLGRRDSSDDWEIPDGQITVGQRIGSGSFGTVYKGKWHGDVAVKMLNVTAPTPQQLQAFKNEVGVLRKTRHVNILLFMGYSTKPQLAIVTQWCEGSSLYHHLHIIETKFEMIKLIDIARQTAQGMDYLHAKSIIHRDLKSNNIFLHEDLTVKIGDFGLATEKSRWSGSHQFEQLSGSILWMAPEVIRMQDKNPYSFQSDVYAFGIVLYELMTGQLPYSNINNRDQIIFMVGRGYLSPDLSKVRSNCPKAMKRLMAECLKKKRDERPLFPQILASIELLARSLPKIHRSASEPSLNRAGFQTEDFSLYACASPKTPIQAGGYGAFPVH

O=C1CCC(Nc2ccc(C3CCN(CC(=O)N4CCN(c5ccc(-c6cnc7[nH]cc(C(=O)c8c(F)ccc(NS(=O)(=O)N9CC[C@@H](F)C9)c8F)c7c6)cc5)CC4)CC3)cc2)C(=O)N1 (stereo partly drawn) [Example A75, (3R)—N-[3-[5-[4-[4-[2-[4-[4-[(2,6-Dioxopiperidin-3-yl)amino]phenyl]piperidin-1-yl]acetyl]piperazin-1-yl]phenyl]-1H-pyrrolo[2,3-b]pyridine-3-carbonyl]-2,4-difluorophenyl]-3-fluoropyrrolidine-1-sulfonamide]
DC50: 4.46 nM
Emax: 16.2%

CCN(C)S(=O)(=O)Nc1ccc(F)c(C(=O)c2c[nH]c3ncc(-c4ccc(N5CC6(CN(C(=O)CN7CCC(c8ccc(NC9CCC(=O)NC9=O)cc8)CC7)C6)C5)nc4)cc23)c1F (stereo not drawn) [Example A76, 5-[6-[2-[2-[4-[4-[(2,6-dioxopiperidin-3-yl)amino]phenyl]piperidin-1-yl]acetyl]-2,6-diazaspiro[3.3]heptan-6-yl]pyridin-3-yl]-3-[3-[[ethyl(methyl)sulfamoyl]amino]-2,6-difluorobenzoyl]-1H-pyrrolo[2,3-b]pyridine]
DC50: 14.9 nM
Emax: 16.9%

CCN(C)S(=O)(=O)Nc1ccc(F)c(C(=O)c2c[nH]c3ncc(-c4ccc(N5CC6(CN(C(=O)CN7CCN(c8ccc(NC9CCC(=O)NC9=O)cc8)CC7)C6)C5)nc4)cc23)c1F (stereo not drawn) [Example A77, 5-[6-[2-[2-[4-[4-[(2,6-Dioxopiperidin-3-yl)amino]phenyl]piperazin-1-yl]acetyl]-2,6-diazaspiro[3.3]heptan-6-yl]pyridin-3-yl]-3-[3-[[ethyl(methyl)sulfamoyl]amino]-2,6-difluorobenzoyl]-1H-pyrrolo[2,3-b]pyridine]
DC50: 47 nM
Emax: 31%

CCN(C)S(=O)(=O)Nc1ccc(F)c(C(=O)c2c[nH]c3ncc(-c4cnc(N5CCN(C(=O)[C@H]6C[C@@H](N7CCC(c8ccc(NC9CCC(=O)NC9=O)cc8)CC7)C6)CC5)nc4)cc23)c1F (stereo partly drawn) [Example A78, 5-[2-[4-[3-[4-[4-[(2,6-Dioxopiperidin-3-yl)amino]phenyl]piperidin-1-yl]cyclobutanecarbonyl]piperazin-1-yl]pyrimidin-5-yl]-3-[3-[[ethyl(methyl)sulfamoyl]amino]-2,6-difluorobenzoyl]-1H-pyrrolo[2,3-b]pyridine]
DC50: 8.93 nM
Emax: 15.4%

CCN(C)S(=O)(=O)Nc1ccc(F)c(C(=O)c2c[nH]c3ncc(-c4cnc(N5CCN(C(=O)CN6CCC(n7cc(NC8CCC(=O)NC8=O)cn7)CC6)CC5)nc4)cc23)c1F (stereo not drawn) [Example A79, 5-[2-[4-[2-[4-[4-[(2,6-Dioxopiperidin-3-yl)amino]pyrazol-1-yl]piperidin-1-yl]acetyl]piperazin-1-yl]pyrimidin-5-yl]-3-[3-[[ethyl(methyl)sulfamoyl]amino]-2,6-difluorobenzoyl]-1H-pyrrolo[2,3-b]pyridine]
DC50: 60 nM
Emax: 22%

CCN(C)S(=O)(=O)Nc1ccc(F)c(C(=O)c2c[nH]c3ncc(-c4ccc(N5CCN(C(=O)CN6CCC(n7cc(NC8CCC(=O)NC8=O)cn7)CC6)CC5)cc4)cc23)c1F (stereo not drawn) [Example A80, 5-[4-[4-[2-[4-[4-[(2,6-Dioxopiperidin-3-yl)amino]pyrazol-1-yl]piperidin-1-yl]acetyl]piperazin-1-yl]phenyl]-3-[3-[[ethyl(methyl)sulfamoyl]amino]-2,6-difluorobenzoyl]-1H-pyrrolo[2,3-b]pyridine]
DC50: 27.5 nM
Emax: 21.6%

CCN(C)S(=O)(=O)Nc1ccc(F)c(C(=O)c2c[nH]c3ncc(-c4ccc(N5CCN(C(=O)CCCN6CCC(c7ccc(C8CCC(=O)NC8=O)cc7)CC6)CC5)nc4)cc23)c1F (stereo not drawn) [Example A81, 5-[6-[4-[4-[4-[4-(2,6-Dioxopiperidin-3-yl)phenyl]piperidin-1-yl]butanoyl]piperazin-1-yl]pyridin-3-yl]-3-[3-[[ethyl(methyl)sulfamoyl]amino]-2,6-difluorobenzoyl]-1H-pyrrolo[2,3-b]pyridine]
DC50: 49 nM
Emax: 13%

CCN(C)S(=O)(=O)Nc1ccc(F)c(C(=O)c2c[nH]c3ncc(-c4ccc(N5CCN(C(=O)CN6CCC(c7ccc(C8CCC(=O)NC8=O)cc7)CC6)CC5)nc4)cc23)c1F (stereo not drawn) [Example A82, 5-[6-[4-[2-[4-[4-(2,6-Dioxopiperidin-3-yl)phenyl]piperidin-1-yl]acetyl]piperazin-1-yl]pyridin-3-yl]-3-[3-[[ethyl(methyl)sulfamoyl]amino]-2,6-difluorobenzoyl]-1H-pyrrolo[2,3-b]pyridine]
DC50: 7.65 nM
Emax: 9.6%

CCN(C)S(=O)(=O)Nc1ccc(F)c(C(=O)c2c[nH]c3ncc(C#Cc4ccc(C(=O)N5CCC(N6CCC(c7ccc(NC8CCC(=O)NC8=O)cc7)CC6)CC5)cc4)cc23)c1F (stereo not drawn) [Example A83, 5-[2-[4-[4-[4-[4-[(2,6-Dioxopiperidin-3-yl)amino]phenyl]piperidin-1-yl]piperidine-1-carbonyl]phenyl]ethynyl]-3-[3-[[ethyl(methyl)sulfamoyl]amino]-2,6-difluorobenzoyl]-1H-pyrrolo[2,3-b]pyridine]
DC50: 6.97 nM
Emax: 8.89%

O=C1CCC(c2ccc(C3CCN(CC(=O)N4CCN(c5ccc(-c6cnc7[nH]cc(C(=O)c8c(F)ccc(NS(=O)(=O)N9CCCC9)c8F)c7c6)cc5)CC4)CC3)cc2)C(=O)N1 (stereo not drawn) [Example A85, N-[3-[5-[4-[4-[2-[4-[4-(2,6-Dioxopiperidin-3-yl)phenyl]piperidin-1-yl]acetyl]piperazin-1-yl]phenyl]-1H-pyrrolo[2,3-b]pyridine-3-carbonyl]-2,4-difluorophenyl]pyrrolidine-1-sulfonamide]
DC50: 16 nM
Emax: 11%

CCN(C)S(=O)(=O)Nc1ccc(F)c(C(=O)c2c[nH]c3ncc(C#Cc4ccc(C(=O)NCCN5CCC(c6ccc(NC7CCC(=O)NC7=O)cc6)CC5)cc4)cc23)c1F (stereo not drawn) [Example A86, N-[2-[4-[4-[(2,6-Dioxopiperidin-3-yl)amino]phenyl]piperidin-1-yl]ethyl]-4-[2-[3-[3-[[ethyl(methyl)sulfamoyl]amino]-2,6-difluorobenzoyl]-1H-pyrrolo[2,3-b]pyridin-5-yl]ethynyl]benzamide]
DC50: 32 nM
Emax: 23%

CCN(C)S(=O)(=O)Nc1ccc(F)c(C(=O)c2c[nH]c3ncc(-c4cnc(N5CCN(C(=O)CN6CCC(c7ccc(NC89CC(C8)C(=O)NC9=O)cc7)CC6)CC5)nc4)cc23)c1F [Example A87, 5-[2-[4-[2-[4-[4-[(2,4-Dioxo-3-azabicyclo[3.1.1]heptan-1-yl)amino]phenyl]piperidin-1-yl]acetyl]piperazin-1-yl]pyrimidin-5-yl]-3-[3-[[ethyl(methyl)sulfamoyl]amino]2,6-difluorobenzoyl]-1H-pyrrolo[2,3-b]pyridine; formic acid]
DC50: 6 nM
Emax: 7%

O=C1CCN(c2cccc(C3CCN(CC(=O)N4CCN(c5ccc(-c6cnc7[nH]cc(C(=O)c8c(F)ccc(NS(=O)(=O)N9CCCC9)c8F)c7c6)cc5)CC4)CC3)c2)C(=O)N1 [Example A88, N-[3-[5-[4-[4-[2-[4-[3-(2,4-Dioxo-1,3-diazinan-1-yl)phenyl]piperidin-1-yl]acetyl]piperazin-1-yl]phenyl]-1H-pyrrolo[2,3-b]pyridine-3-carbonyl]-2,4-difluorophenyl]pyrrolidine-1-sulfonamide]
DC50: 52 nM
Emax: 26%

O=C1CCC(Nc2ccc(C3CCN(CCCC(=O)N4CC(c5ccc(-c6cnc7[nH]cc(C(=O)c8c(F)ccc(NS(=O)(=O)N9CCCC9)c8F)c7c6)cc5)C4)CC3)cc2)C(=O)N1 (stereo not drawn) [Example A89, N-[3-[5-[4-[1-[4-[4-[4-[(2,6-dioxopiperidin-3-yl)amino]phenyl]piperidin-1-yl]butanoyl]azetidin-3-yl]phenyl]-1H-pyrrolo[2,3-b]pyridine-3-carbonyl]-2,4-difluorophenyl]pyrrolidine-1-sulfonamide]
DC50: 73 nM
Emax: 12%

CCN(C)S(=O)(=O)Nc1ccc(F)c(C(=O)c2c[nH]c3ncc(-c4cnc(N5CCC(N(C)CC(=O)N6CCC(c7ccc(NC8CCC(=O)NC8=O)cn7)CC6)CC5)nc4)cc23)c1F (stereo not drawn) [Example A90, 5-[2-[4-[[2-[4-[5-[(2,6-Dioxopiperidin-3-yl)amino]pyridin-2-yl]piperidin-1-yl]-2-oxoethyl]-methylamino]piperidin-1-yl]pyrimidin-5-yl]-3-[3-[[ethyl(methyl)sulfamoyl]amino]-2,6-difluorobenzoyl]-1H-pyrrolo[2,3-b]pyridine;formic acid]
DC50: 31 nM
Emax: 20%

CCN(C)S(=O)(=O)Nc1ccc(F)c(C(=O)c2c[nH]c3ncc(-c4cnc(N5CCN(C(=O)CN6CCC(c7ccc(N8CCC(=O)NC8=O)cc7)CC6)CC5)nc4)cc23)c1F [Example A91, 5-[2-[4-[2-[4-[4-(2,4-Dioxo-1,3-diazinan-1-yl)phenyl]piperidin-1-yl]acetyl]piperazin-1-yl]pyrimidin-5-yl]-3-[3-[[ethyl(methyl)sulfamoyl]amino]-2,6-difluorobenzoyl]-1H-pyrrolo[2,3-b]pyridine]
DC50: 5 nM
Emax: 8%

CCN(C)S(=O)(=O)Nc1ccc(F)c(C(=O)c2c[nH]c3ncc(-c4cnc(N5CCC(N(C)C(=O)CN6CCC(c7ccc(NC8CCC(=O)NC8=O)cn7)CC6)CC5)nc4)cc23)c1F (stereo not drawn) [Example A92, 2-[4-[5-[(2,6-Dioxopiperidin-3-yl)amino]pyridin-2-yl]piperidin-1-yl]-N-[1-[5-[3-[3-[[ethyl(methyl)sulfamoyl]amino]-2,6-difluorobenzoyl]-1H-pyrrolo[2,3-b]pyridin-5-yl]pyrimidin-2-yl]piperidin-4-yl]-N-methylacetamide; formic acid]
DC50: 8 nM
Emax: 7%

CCN(C)S(=O)(=O)Nc1ccc(F)c(C(=O)c2c[nH]c3ncc(-c4cnc(N5CCC(NCC(=O)N6CCC(c7ccc(NC8CCC(=O)NC8=O)cn7)CC6)CC5)nc4)cc23)c1F (stereo not drawn) [Example A93, 5-[2-[4-[[2-[4-[5-[(2,6-Dioxopiperidin-3-yl)amino]pyridin-2-yl]piperidin-1-yl]-2-oxoethyl]amino]piperidin-1-yl]pyrimidin-5-yl]-3-[3-[[ethyl(methyl)sulfamoyl]amino]-2,6-difluorobenzoyl]-1H-pyrrolo[2,3-b]pyridine;formic acid]
DC50: 16 nM
Emax: 14%

— patent US12559492B2, “BRAF degraders” (C4 Therapeutics, Inc., priority 2020, dated 2026)
